Source: US6936602B1, “Benzazepine derivatives, process for the preparation of the same and uses thereof” (Takeda Chemical Industries, Ltd., priority 1999, dated 2005)

| SMILES | melting point |
| --- | --- |
| CCOCCCOc1ccc(-c2ccc3c(c2)C=C(C(=O)Nc2ccc(CN(C)C4CCOCC4)cc2)CCN3S(C)(=O)=O)cc1 [Compound 8, 7-[4-(3-ethoxypropoxy)phenyl)-1-methanesulfonyl-N-[4-[[N-methyl-N-(tetrahydro-2H-pyran-4-yl)amino]methyl]phenyl]-2,3-dihydro-1H-1-benzazepine-4-carboxamide] | 157 to 160 °C |
| CCCCOCCOc1ccc(-c2ccc3c(c2)C=C(C(=O)Nc2ccc(CN(C)C4CCOCC4)cc2)CCN3Cc2ccc(OC)cc2)cc1 [Compound 56, 7-(4-butoxyethoxyphenyl)-1-(4-methoxybenzyl)-N-[4-[[N-methyl-N-(tetrahydropyran-4-yl)amino]methyl]phenyl]-2,3-dihydro-1-benzazepine-4-carboxamide] | 151 to 152 °C |
| CCOCCCOc1ccc(-c2ccc3c(c2)C=C(C(=O)Nc2ccc(CN(C)C4CCOCC4)cc2)CCN3C)cc1 [Compound 13, 7-[4-(3-ethoxypropoxy)phenyl]-1-methyl-N-[4-[[N-methyl-N-(tetrahydro-2H-pyran-4-yl)amino]methyl]phenyl]-2,3-dihydro-1H-1-benzazepine-4-carboxamide] | 98 to 100 °C |
| CCOCCN(C)c1ccc(-c2ccc3c(c2)C=C(C(=O)Nc2ccc(CN(C)C4CCOCC4)cc2)CCN3C=O)cc1 [Compound 4, 7-[4-[N-(2-ethoxyethyl)-N-methylamino]phenyl]-1-formyl-N-[4-[[N-methyl-N-(tetrahydro-2H-pyran-4-yl)amino]methyl]phenyl]-2,3-dihydro-1H-1-benzazepine-4-carboxamide] | 157 to 158 °C |
| CCCOCCOc1ccc(-c2ccc3c(c2)C=C(C(=O)Nc2ccc(CN(C)C4CCOCC4)cc2)CCN3CCCOC)cc1 [Compound 103, 1-(3-methoxypropyl)-N-[4-[[N-methyl-N-(tetrahydropyran-4-yl)amino]methyl]phenyl]-7-[4-(2-propoxyethoxy)phenyl]-2,3-dihydro-1H-1-benzazepine-4-carboxamide] | 87 to 90 °C |
| CN1CCC(C(=O)Nc2ccc(CN(C)C3CCOCC3)cc2)=Cc2cc(-c3ccc4c(c3)OCCO4)ccc21 [Compound 24, 7-(2,3-dihydro-1,4-benzodioxin-6-yl)-1-methyl-N-[4-[[N-methyl-N-(tetrahydro-2H-pyran-4-yl)amino]methyl]phenyl]-2,3-dihydro-1H-1-benzazepine-4-carboxamide] | 164 to 165 °C |
| CCCOCCOc1ccc(-c2ccc3c(c2)C=C(C(=O)Nc2ccc(CN(C)C4CCOCC4)cc2)CCN3Cc2cccc(OC)c2)cc1 [Compound 53, 1-(3-methoxybenzyl)-N-[4-[[N-methyl-N-(tetrahydropyran-4-yl)amino]methyl]phenyl]-7-(4-propoxyethoxyphenyl)-2,3-dihydro-1-benzazepine-4-carboxamide] | 113 to 114 °C |
| CCCCOCCOc1ccc(-c2ccc3c(c2)C=C(C(=O)Nc2ccc(CN(C)C4CCOCC4)cc2)CCN3C2CC2)cc1 [Compound 31, 7-[4-(2-butoxyethoxy)phenyl]-1-cyclopropyl-N-[4-[[N-methyl-N-(tetrahydro-2H-pyran-4-yl)amino]methyl]phenyl]-2,3-dihydro-1H-1-benzazepine-4-carboxamide] | 117 to 120 °C |
| CCCOCCOc1ccc(-c2ccc3c(c2)C=C(C(=O)Nc2ccc(CN(C)C4CCOCC4)cc2)CCN3Cc2ccccc2OC)cc1 [Compound 51, 1-(2-methoxybenzyl)-N-[4-[[N-methyl-N-(tetrahydropyran-4-yl)amino]methyl]phenyl]-7-(4-propoxyethoxyphenyl)-2,3-dihydro-1-benzazepine-4-carboxamide] | 118 to 119 °C |
| CCCCOCCOc1ccc(-c2ccc3c(c2)C=C(C(=O)Nc2ccc(CN(C)C4CCOCC4)cc2)CCN3c2ccc(S(=O)(=O)N(C)C)cc2)cc1 [Compound 47, 7-[4-(2-butoxyethoxy)phenyl]-1-(N,N-dimethyl-4-sulfamoylphenyl)-N-[4-[[N-methyl-N-(tetrahydro-2H-pyran-4-yl)amino]methyl]phenyl]-2,3-dihydro-1H-1-benzazepine-4-carboxamide] | 94 to 98 °C |
| CCCN1CCC(C(=O)Nc2ccc(CN(C)C3CCOCC3)cc2)=Cc2cc(-c3ccc(OCCOCC)cc3)ccc21 [Compound 25, 7-[4-(2-ethoxyethoxy)phenyl]-N-[4-[[N-methyl-N-(tetrahydro-2H-pyran-4-yl)amino]methyl]phenyl]-1-propyl-2,3-dihydro-1H-1-benzazepine-4-carboxamide] | 144 to 147 °C |
| CCCCOCCOc1ccc(-c2ccc3c(c2)C=C(C(=O)Nc2ccc(CN(C)C4CCOCC4)cc2)CCN3c2cnc(C)o2)cc1 [Compound 44, 7-[4-(2-butoxyethoxy)phenyl]-1-(2-methyloxazol-5-yl)-N-[4-[[N-methyl-N-(tetrahydro-2H-pyran-4-yl)amino]methyl]phenyl]-2,3-dihydro-1H-1-benzazepine-4-carboxamide] | 125 to 128 °C |
| CCCCOCCOc1ccc(-c2ccc3c(c2)C=C(C(=O)Nc2ccc(CN(C)C4CCOCC4)cc2)CCN3Cc2cc(OC)ccc2OC)cc1 [Compound 65, 7-(4-butoxyethoxyphenyl)-1-(2,5-dimethoxybenzyl)-N-[4-[[N-methyl-N-(tetrahydropyran-4-yl)amino]methyl]phenyl]-2,3-dihydro-1-benzazepine-4-carboxamide] | 143 to 144 °C |
| CCOCCN(CC)c1ccc(-c2ccc3c(c2)C=C(C(=O)Nc2ccc(CN(C)C4CCOCC4)cc2)CCN3C=O)cc1 [Compound 5, 7-[4-[N-(2-ethoxyethyl)-N-ethylamino]phenyl]-1-formyl-N-[4-[[N-methyl-N-(tetrahydro-2H-pyran-4-yl)amino]methyl]phenyl]-2,3-dihydro-1H-1-benzazepine-4-carboxamide] | 162 to 164 °C |
| CCCCOCCOc1ccc(-c2ccc3c(c2)C=C(C(=O)Nc2ccc(CN(C)C4CCOCC4)cc2)CCN3Cc2cccc(OCCC)c2)cc1 [Compound 64, 7-(4-butoxyethoxyphenyl)-N-[4-[[N-methyl-N-(tetrahydropyran-4-yl)amino]methyl]phenyl]-1-(3-propoxybenzyl)-2,3-dihydro-1-benzazepine-4-carboxamide] | 114.5 to 115.5 °C |
| CCCOCCOc1ccc(-c2ccc3c(c2)C=C(C(=O)Nc2ccc(CN(C)C4CCOCC4)cc2)CCN3C(=O)CC)cc1 [Compound 29, 1-propionyl-7-[4-(2-propoxyethoxy)phenyl]-N-[4-[[N-methyl-N-(tetrahydro-2H-pyran-4-yl)amino]methyl]phenyl]-2,3-dihydro-1H-1-benzazepine-4-carboxamide] | 167 to 169 °C |
| CCCOCCOc1ccc(-c2ccc3c(c2)C=C(C(=O)Nc2ccc(CN(C)C4CCOCC4)cc2)CCN3C)cc1 [Compound 12, 1-methyl-N-[4-[[N-methyl-N-(tetrahydro-2H-pyran-4-yl)amino]methyl]phenyl]-7-[4-(2-propoxyethoxy)phenyl]-2,3-dihydro-1H-benzazepine-4-carboxamide] | 136 to 138 °C |
| CCCCOCCOc1ccc(-c2ccc3c(c2)C=C(C(=O)Nc2ccc(CN(C)C4CCOCC4)cc2)CCN3Cc2cccs2)cc1 [Compound 60, 7-(4-butoxyethoxyphenyl)-N-[4-[[N-methyl-N-(tetrahydropyran-4-yl)amino]methyl]phenyl]-1-(2-thienylmethyl)-2,3-dihydro-1-benzazepine-4-carboxamide] | 84 to 85 °C |
| CCCOCCOc1ccc(-c2ccc3c(c2)C=C(C(=O)Nc2ccc(CN(C)C4CCOCC4)cc2)CCN3Cc2ccc(OC)cc2)cc1 [Compound 55, 1-(4-methoxybenzyl)-N-[4-[[N-methyl-N-(tetrahydropyran-4-yl)amino]methyl]phenyl]-7-(4-propoxyethoxyphenyl)-2,3-dihydro-1-benzazepine-4-carboxamide] | 160 to 161 °C |
| CCCCOCCOc1ccc(-c2ccc3c(c2)C=C(C(=O)Nc2ccc(CN(C)C4CCOCC4)cc2)CCN3Cc2ccccc2OC)cc1 [Compound 52, 7-(4-butoxyethoxyphenyl)-1-(2-methoxybenzyl)-N-[4-[[N-methyl-N-(tetrahydropyran-4-yl)amino]methyl]phenyl]-2,3-dihydro-1-benzazepine-4-carboxamide] | 111.5 to 112.5 °C |
| CCOCCOc1ccc(-c2ccc3c(c2)C=C(C(=O)Nc2ccc(CN(C)C4CCOCC4)cc2)CCN3C)cc1 [Compound 9, 7-[4-(2-ethoxyethoxy)phenyl]-1-methyl-N-[4-[[N-methyl-N-(tetrahydro-2H-pyran-4-yl)amino]methyl]phenyl]-2,3-dihydro-1H-1-benzazepine-4-carboxamide] | 122 to 125 °C |
| CCOCCOc1ccc(-c2ccc3c(c2)C=C(C(=O)Nc2ccc(CN(C)C4CCOCC4)cc2)CCN3C=O)cc1Cl [Compound 21, 7-[3-chloro4-(2-ethoxy)ethoxyphenyl]-1-formyl-N-[4-[[N-methyl-N-(tetrahydro-2H-pyran-4-yl)amino]methyl]phenyl]-2,3-dihydro-1H-1-benzazepine-4-carboxamide] | 198 to 200 °C |
| CCCOCCOc1ccc(-c2ccc3c(c2)C=C(C(=O)Nc2ccc(CN(C)C4CCOCC4)cc2)CCN3Cc2ccoc2)cc1 [Compound 61, 1-(3-furylmethyl)-N-[4-[[N-methyl-N-(tetrahydropyran-4-yl)amino]methyl]phenyl]-7-(4-propoxyethoxyphenyl)-2,3-dihydro-1-benzazepine-4-carboxamide] | 115 to 116 °C |
| CCCOCCN(CC)c1ccc(-c2ccc3c(c2)C=C(C(=O)Nc2ccc(CN(C)C4CCOCC4)cc2)CCN3C=O)cc1 [Compound 6, 7-[4-[N-ethyl-N-(2-propoxyethyl)amino]phenyl]-1-formyl-N-[4-[[N-methyl-N-(tetrahydro-2H-pyran-4-yl)amino]methyl]phenyl]-2,3-dihydro-1H-1-benzazepine-4-carboxamide] | 146 to 149 °C |
| CC(C)OCCOc1ccc(-c2ccc3c(c2)C=C(C(=O)N(c2ccc(CN(C)C4CCOCC4)cc2)S(C)(=O)=O)CCN3)cc1 [Compound 15, 1-methylsulfonyl N-[4-[[N-methyl-N-(tetrahydro-2H-pyran-4-yl)amino]methyl]phenyl]-7-[4-(2-propoxy)ethoxyphenyl]-2,3-dihydro-1H-1-benzazepine-4-carboxamide] | 161 to 162 °C |
